Legend:
[1] = tested on: ovalbumin-sensitized/-challenged Brown-Norway rat; assay: Late inflammatory airway reaction in the ovalbumin-sensitized/-challenged Brown-Norway rat (BAL); details: summary of the table; i.t.; Roflumilast 0.3 μmol/kg, Pumafentrine 3 μmol/kg, Salmeterol 3 pmol/kg [sic]
PDE3 = PDE3 inhibition (PDE3/4 IC50); type: biochemical; details: first value of PDE3/4 pair
PDE4 = PDE4 inhibition (PDE3/4 IC50); type: biochemical; details: second value of PDE3/4 pair

| IC50 (PDE3) | IC50 (PDE4) | SMILES | effect on cell infiltration and protein accumulation in BAL fluid, in words [1] |
| --- | --- | --- | --- |
| – | – | OCc1cc(C(O)CNCCCCCCOCCCCc2ccccc2)ccc1O (single isomer, unassigned; (+)) [Salmeterol, (+)-4-hydroxy-α^1-[[[6-(4-phenylbutoxy)hexyl]amino]methyl]-1,3-benzenedimethanol] | exhibited inhibitory effects |
| 28 nM | 7 nM | CCOc1cc2c(cc1OC)C(c1ccc(C(=O)N(C(C)C)C(C)C)cc1)=N[C@@H]1CCN(C)C[C@H]21 [Pumafentrine] | did not show any significant effects |
| > 10000 nM | 0.7 nM | O=C(Nc1c(Cl)cncc1Cl)c1ccc(OC(F)F)c(OCC2CC2)c1 [Roflumilast] | did not show any significant effects |
